Results reported in paper PMC5290327, “SC83288 is a clinical development candidate for the treatment of severe malaria” (Nature Communications, 2017).
“Also recorded” adds a separate entry of the source. Like-named read-outs stand apart in the source and are kept apart here.

What was measured:
CYP2C19 = CYP2C19 (Homo sapiens, UniProt P33261); test: CYP inhibition, human liver microsomes; conditions: 10 µM
P. falciparum strain W2 = test: Efficacy in the Pf/NSG mouse model; format: in vivo, Plasmodium falciparum; conditions: W2, humanized NSG mouse
in vivo = format: in vivo, rat; conditions: for C0: rat, in vivo, iv; for ALB / ALB/GLOB / ALP / ALT / AMY / AST / BUN / BUN/CREA / CA / CK / CRE / EOS / GLOB / GLU / HCT / HGB / K+ / MCH / MCHC / MCV / MPV / NA+ / NA/K / PHOS / PLT / RBC / RDW / TBIL / TP / WBC: 24h
Description: The maximal-tolerated i.v. bolus dose of SC83288 was at 30 mg kg^−1 body weight (extrapolated initial drug plasma concentration C0 of 65,600 ng ml^−1) and 15 mg kg^−1 body weight (C0 of 27,300 ng ml^−1) in rats and mice, respectively. Observed adverse effects included ataxia, respiratory symptoms and sleepiness. However, all treated animals fully recovered within 30 min after drug application. […] Increasing the dose to 45 mg kg^−1 body weight caused apnoea in rats. The no-observed-adverse-effect level and the no-observed-effect level in rats corresponded to a tested i.v. bolus dose of 22.5 mg kg^−1 body weight (C0 of 49,200 ng ml^−1) and 15 mg kg^−1 body weight (C0 of 32,800 ng ml^−1), respectively.
(§1) On the treatment day, all animals were weighed and the dosing volume was calculated for each individual animal according to its actual body weight. All animal were dosed once. Blood samples were taken at different time points and plasma was collected after centrifugation (10,000g, 10 min, 4 °C). Plasma samples were analysed by LC–MS/MS. […] All relevant observations were recorded. The PK studies in cynomolgus monkeys and beagle dogs were performed by the Laboratory of Pharmacology and Toxicology (LPT), Hamburg, and PK and toxicity studies in mice and rats were performed by the 4SC Discovery GmbH, Munich. PK parameters were obtained by a non-compartment analysis, using Kinetica 4.1 (Thermo Scientific).

Measured pK = format: physicochemical
Description: SC81458 and SC83288 were soluble in water (890 and 940 μg ml^−1, respectively) and organic solvents. […] The compounds were stable in different physiological solutions, including artificial gastric juice, simulated intestinal fluid, phosphate-buffered saline and human plasma, when incubated for 6 h at 37 °C.

PK study = format: in vivo; conditions: dog i.v. 1.7 mg kg^−1; for half-life: dog
Description: as §1

Dd2 trophozoites = test: In vitro speed of action, clearance of trophozoites (Vial protocol); format: cell-based, Plasmodium falciparum; conditions: 500 nM
[1] = CYP2C19a, omeprazole to 5-OH-omeprazole
[2] = CYP2C19b, omeprazole to desmethylomeprazole

Chain of CYP2C19 (P33261 whole entry): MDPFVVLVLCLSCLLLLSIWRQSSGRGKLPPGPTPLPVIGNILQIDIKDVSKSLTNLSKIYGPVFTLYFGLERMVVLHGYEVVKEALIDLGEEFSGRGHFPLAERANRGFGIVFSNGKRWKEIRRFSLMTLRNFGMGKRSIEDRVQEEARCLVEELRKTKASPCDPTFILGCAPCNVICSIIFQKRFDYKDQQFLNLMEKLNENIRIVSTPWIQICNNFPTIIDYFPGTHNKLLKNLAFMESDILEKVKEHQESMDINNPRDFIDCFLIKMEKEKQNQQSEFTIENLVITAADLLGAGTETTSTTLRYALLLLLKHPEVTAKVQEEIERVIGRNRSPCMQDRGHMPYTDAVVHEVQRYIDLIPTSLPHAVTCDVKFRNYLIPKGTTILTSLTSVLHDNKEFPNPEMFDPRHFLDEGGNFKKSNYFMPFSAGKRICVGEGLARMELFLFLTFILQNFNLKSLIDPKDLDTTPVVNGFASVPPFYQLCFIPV

## CCCCN1CCN(C(=N)c2cccc(NC(=O)Nc3ccc(S(=O)(=O)NCc4ccc(S(N)(=O)=O)cc4)cc3)c2)CC1 [SC81458, 4-(3-(3-((4-butylpiperazin-1-yl)(imino)methyl)phenyl)ureido)-N-(4-sulfamoylbenzyl) benzenesulfonamide]
CYP2C19; [1]
  Remaining enzyme activity: 87%
CYP2C19; [2]
  Remaining enzyme activity: 89%
P. falciparum strain W2
  In vivo logPRR: 5.3

## COC(=O)N1CCN(C(=N)c2cccc(NC(=O)Nc3ccc(S(=O)(=O)NCc4ccc(S(N)(=O)=O)cc4)cc3)c2)CC1 [SC83288, methyl 4-(imino(3-(3-(4-(N-(4-sulfamoylbenzyl)sulfamoyl)phenyl)ureido)phenyl)methyl) piperazine-1-carboxylate]
In vivo; 24 h post application
  haematological and clinical biochemical parameters: remained within normal range
In vivo; projected dosing regimen vs i.v. NOAEL in rats
  safety margin: ~55 fold
In vivo; rats, 15 mg kg^−1 i.v. bolus (NOEL), read-out: extrapolated C0
  C0: 32800 ng/mL
In vivo; rats, 22.5 mg kg^−1 i.v. bolus (NOAEL), read-out: extrapolated C0
  C0: 49200 ng/mL
In vivo; rats, 30 mg kg^−1 i.v. bolus, read-out: extrapolated initial drug plasma concentration C0
  C0: 65600 ng/mL
In vivo; rats
  maximal-tolerated i.v. bolus dose: 30 mg kg^−1 body weight
In vivo; rats and mice at maximal-tolerated dose
  time to full recovery after drug application: ≤ 30 min
In vivo; rats, 45 mg kg^−1 body weight
  adverse effect: apnea; also recorded: apnoea
In vivo; rats, 15 mg/kg
  ALB: 4.9 g/dL
  ALB/GLOB: 5.5 g/dL
  ALP: 306 U l-1
  ALT: 51 U l-1
  AMY: 909 U l-1
  AST: 70 U l-1
  BUN: 14.7 mg/dL
  BUN/CREA: 66.7 mg/dL
  CA: 11.0 mg/dL
  CK: 176 U l-1
  CRE: 0.2 mg/dL
  EOS: 0.4%
  GLOB: 0.9 g/dL
  GLU: 202 mg/dL
  HCT: 40.9%
  HGB: 14.3 g/dL
  K+: 5.1 mmol/L
  MCH: 20.5 pg
  MCHC: 35.1 g/dL
  MCV: 58 µm3
  MPV: 5.7 µm3
  NA+: 136 mmol/L
  NA/K: 26.7 mmol/L
  PHOS: 9.4 mg/dL
  PLT: 812 103 mm-3
  RBC: 7.00 103 mm-3
  RDW: 13.3%
  TBIL: 0.4 mg/dL
  TP: 5.8 g/dL
  WBC: 16.7 103 mm-3
In vivo; rats, 22.5 mg/kg
  ALB: 5.0 g/dL
  ALB/GLOB: 6.7 g/dL
  ALP: 399 U l-1
  ALT: 58 U l-1
  AMY: 921 U l-1
  AST: 79 U l-1
  BUN: 17.5 mg/dL
  BUN/CREA: 72.5 mg/dL
  CA: 11.0 mg/dL
  CK: 97 U l-1
  CRE: 0.3 mg/dL
  EOS: 0.3%
  GLOB: 0.8 g/dL
  GLU: 160 mg/dL
  HCT: 39.6%
  HGB: 14.2 g/dL
  K+: 5.3 mmol/L
  MCH: 21.0 pg
  MCHC: 35.9 g/dL
  MCV: 59 µm3
  MPV: 5.9 µm3
  NA+: 135 mmol/L
  NA/K: 25.7 mmol/L
  PHOS: 9.2 mg/dL
  PLT: 847 103 mm-3
  RBC: 6.77 103 mm-3
  RDW: 13.3%
  TBIL: 0.3 mg/dL
  TP: 5.7 g/dL
  WBC: 14.3 103 mm-3
In vivo; rats, 30 mg/kg
  ALB: 5.4 g/dL
  ALB/GLOB: 8.9 g/dL
  ALP: 424 U l-1
  ALT: 58 U l-1
  AMY: 962 U l-1
  AST: 85 U l-1
  BUN: 15.7 mg/dL
  BUN/CREA: 78.3 mg/dL
  CA: 11.2 mg/dL
  CK: 91 U l-1
  CRE: 0.2 mg/dL
  EOS: 0.3%
  GLOB: 0.6 g/dL
  GLU: 170 mg/dL
  HCT: 40.1%
  HGB: 14.3 g/dL
  K+: 5.4 mmol/L
  MCH: 20.5 pg
  MCHC: 35.8 g/dL
  MCV: 57 µm3
  MPV: 5.7 µm3
  NA+: 136 mmol/L
  NA/K: 25.2 mmol/L
  PHOS: 9.0 mg/dL
  PLT: 869 103 mm-3
  RBC: 7.00 103 mm-3
  RDW: 13.4%
  TBIL: 0.3 mg/dL
  TP: 6.0 g/dL
  WBC: 11.2 103 mm-3
In vivo; rats, i.v. bolus
  no-observed-adverse-effect level: 22.5 mg kg^−1 body weight
  no-observed-effect level: 15 mg kg^−1 body weight
CYP2C19; [1]
  Remaining enzyme activity: 104%
CYP2C19; [2]
  Remaining enzyme activity: 96%
Measured pK
  pK: 9.82
PK study; beagle, plasma, iv, read-out: t1/2 effective
  half-life: 35 min
PK study; beagle, plasma, iv, read-out: t1/2 initial
  half-life: 12 min
PK study; beagle, plasma, iv, read-out: t1/2 terminal
  half-life: 90 min
PK study; beagle, plasma, iv
  AUC(0-inf): 2260 ng·h/mL
  C0: 5580 ng/mL
  Cmax: 4560 ng/mL
  Tmax: 5 min
  clearance: 14.7 mL/min/kg
PK study; beagle, plasma, iv, read-out: MRT0-t
  MRT last: 50.4 min
PK study
  VC: 0.359 L/kg
Dd2 trophozoites
  exposure time to clear a 0.5% parasitemia: ≤ 3 ± 1 h
